Patent US20220323446A1 (Amgen Inc., priority 2021, published 2022)

Legend:
[1] = system: NSCLC adenocarcinoma (stage IV); assay: Dose comparison study, tumor response (RECIST 1.1) at 240 mg once daily; assay type: in vivo, human
Description: The extent of disease is evaluated by contrast-enhanced MRI/CT according to RECIST 1.1, as described below. In order to reduce radiation exposure for subjects, low dose CT should be utilized whenever possible.

[2] = Common adverse events during Phase 2 Study; assay type: in vivo, human
[3] = Phase 1 interaction study, sotorasib with omeprazole, fasted conditions; assay type: in vivo, human
[4] = Phase 1 interaction study, sotorasib with famotidine or omeprazole, fed conditions; assay type: in vivo, human
Description: Safety and tolerability monitoring was performed throughout the study.

[5] = target: T1, OATP1B1 (Homo sapiens, UniProt Q9Y6L6); assay: Phase 1 interaction study, sotorasib with single dose of rifampin; assay type: in vivo
T1 construct: from tissue
T1 sequence (Q9Y6L6 1-691): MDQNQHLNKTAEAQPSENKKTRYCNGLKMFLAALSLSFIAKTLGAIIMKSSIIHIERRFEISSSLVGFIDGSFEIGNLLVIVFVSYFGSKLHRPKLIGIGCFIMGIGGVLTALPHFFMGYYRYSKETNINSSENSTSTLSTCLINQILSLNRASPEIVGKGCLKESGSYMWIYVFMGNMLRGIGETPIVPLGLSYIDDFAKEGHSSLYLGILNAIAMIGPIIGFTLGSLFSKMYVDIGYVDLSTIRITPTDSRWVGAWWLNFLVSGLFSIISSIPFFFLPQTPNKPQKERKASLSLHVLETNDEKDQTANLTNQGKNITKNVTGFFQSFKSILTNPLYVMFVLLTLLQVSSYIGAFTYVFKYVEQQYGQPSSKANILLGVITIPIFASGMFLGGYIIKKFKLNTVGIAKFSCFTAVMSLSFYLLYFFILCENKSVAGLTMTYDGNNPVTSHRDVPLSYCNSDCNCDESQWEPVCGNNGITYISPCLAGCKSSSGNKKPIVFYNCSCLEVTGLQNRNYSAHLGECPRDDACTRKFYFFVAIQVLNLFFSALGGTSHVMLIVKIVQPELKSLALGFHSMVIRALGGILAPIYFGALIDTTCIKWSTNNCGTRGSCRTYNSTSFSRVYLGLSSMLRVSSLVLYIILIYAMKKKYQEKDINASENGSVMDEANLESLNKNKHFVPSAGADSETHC

[6] = system: phosphorylation of extracellular signal-regulated kinase (ERK); details: preclinical studies; cited from earlier work
[7] = clinical; details: human, in vivo, oral
[8] = Dose comparison study 960 mg QD vs 240 mg QD, pharmacokinetics; details: for AUC0-24h: GeoMean
[9] = Sotorasib dose reduction and discontinuation (safety analysis set); details: for Discontinuation reason: Adverse event / Discontinuation reason: Death / Discontinuation reason: Disease progression / Subjects who discontinued sotorasib: subjects with any dose reduction;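 as to all read-outs here: counts of patients in the safety analysis set, where lowering the dose was allowed upon certain adverse events such as hepatotoxicity, nausea or vomiting and diarrhea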
[10] = target: CYP3A4 (Homo sapiens, UniProt P08684); assay: Phase 1 interaction study, sotorasib with multiple doses of rifampin (strong CYP3A4 inducer); assay type: in vivo; parameters: from tissue; host or cells: in vivo, healthy human subjects (liver or gut enzyme)
[11] = with omeprazole vs sotorasib alone, fasted state
[12] = famotidine 10 hours prior to and 2 hours after sotorasib
[13] = 427 subjects, sotorasib monotherapy, any tumor type and any dose
[14] = Any tumor types 180 mg QD fasted (n = 6)
[15] = Any tumor types 360 mg QD fasted (n = 27)
[16] = Any tumor types 480 mg BID fed (n = 26)
[17] = Any tumor types 720 mg QD fasted (n = 11)
[18] = Any tumor types 960 mg QD fasted (n = 339)
[19] = Any tumor types 960 mg QD fed (n = 18)
[20] = Total any tumor types and any dose (n = 427)
[21] = of the 56 subjects who had a dose reduction
[22] = Total any tumor types and any dose (N = 56)

Chain of CYP3A4 (P08684 whole entry): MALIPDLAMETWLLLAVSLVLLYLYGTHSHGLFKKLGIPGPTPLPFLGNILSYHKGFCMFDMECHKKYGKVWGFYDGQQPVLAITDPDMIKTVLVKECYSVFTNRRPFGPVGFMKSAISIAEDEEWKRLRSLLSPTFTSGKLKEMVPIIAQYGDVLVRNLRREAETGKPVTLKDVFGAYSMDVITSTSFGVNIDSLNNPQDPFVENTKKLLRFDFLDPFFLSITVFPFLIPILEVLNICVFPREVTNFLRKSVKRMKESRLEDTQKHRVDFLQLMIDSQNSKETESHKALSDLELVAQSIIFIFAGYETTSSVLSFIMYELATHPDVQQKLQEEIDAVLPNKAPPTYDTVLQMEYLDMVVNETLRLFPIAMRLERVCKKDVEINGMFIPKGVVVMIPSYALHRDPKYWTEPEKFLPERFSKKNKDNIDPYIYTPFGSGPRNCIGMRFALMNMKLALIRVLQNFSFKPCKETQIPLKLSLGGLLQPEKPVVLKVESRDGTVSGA

C=CC(=O)N1CCN(c2nc(=O)n(-c3c(C)ccnc3C(C)C)c3nc(-c4c(O)cccc4F)c(F)cc23)[C@@H](C)C1 (atropisomer, axis not shown; (M)) [sotorasib, 6-fluoro-7-(2-fluoro-6-hydroxyphenyl)-(1M)-1-[4-methyl-2-(propan-2-yl)pyridin-3-yl]-4-[(2S)-2-methyl-4-(prop-2-enoyl)piperazin-1-yl]pyrido[2,3-d]pyrimidin-2(1H)-one]
tumor response ([1]; one patient, after cycle 3 and 5): stable disease (SD)
tumor response ([1]; other patient, after cycle 9): progression disease (PD)
tumor response ([1]; other patient, after cycles 3, 5, and 7): partial response (PR)
tumor response ([1]; same patient, after cycles 7 and 9): partial response (PR)
Abdominal pain, ALL GRADES [2]: 15%
Abdominal pain, GRADE 3 TO 4 [2]: 1.0%
Arthalgia, ALL GRADES [2]: 12%
Arthalgia, GRADE 3 TO 4 [2]: 1.0%
Constipation, ALL GRADES [2]: 16%
Constipation, GRADE 3 TO 4 [2]: 0.5%
Cough, ALL GRADES [2]: 20%
Cough, GRADE 3 TO 4 [2]: 1.5%
Decreased appetite, ALL GRADES [2]: 13%
Decreased appetite, GRADE 3 TO 4 [2]: 1.0%
Diarrhea, ALL GRADES [2]: 42%
Diarrhea, GRADE 3 TO 4 [2]: 5%
Dyspnea, ALL GRADES [2]: 16%
Dyspnea, GRADE 3 TO 4 [2]: 2.9%
Fatigue, ALL GRADES [2]: 25%
Fatigue, GRADE 3 TO 4 [2]: 2.0%
Headache, ALL GRADES [2]: 10%
Headache, GRADE 3 TO 4 [2]: 0%
Hepatotoxicity, ALL GRADES [2]: 25%
Hepatotoxicity, GRADE 3 TO 4 [2]: 12%
Musculoskeletal pain, ALL GRADES [2]: 35%
Musculoskeletal pain, GRADE 3 TO 4 [2]: 2.0%
Nausea, ALL GRADES [2]: 26%
Nausea, GRADE 3 TO 4 [2]: 1.0%
Pneumonia, ALL GRADES [2]: 12%
Pneumonia, GRADE 3 TO 4 [2]: 7%
Rash, ALL GRADES [2]: 12%
Rash, GRADE 3 TO 4 [2]: 0%
Vomiting, ALL GRADES [2]: 17%
Vomiting, GRADE 3 TO 4 [2]: 1.5%
sotorasib time to maximal plasma concentration (Lx) delayed by ([3]; 960 mg sotorasib with 40 mg omeprazole vs alone, fasted, healthy subjects): 0.75 h
Mean terminal half-life (ty2) of sotorasib with omeprazole compared to alone ([3]; 960 mg sotorasib, 40 mg omeprazole, fasted): similar
safety and tolerability ([3]; coadministered with 40 mg omeprazole or alone, healthy subjects): safe and well tolerated
AUC(0-inf) ([3]; human, plasma, 960 mg): 29300 ng·h/mL
decrease of sotorasib AUCinf [3, 11]: 42%
decrease of sotorasib Cmax [3, 11]: 57%
safety and tolerability ([4]; 960 mg with 40 mg famotidine single dose or 40 mg omeprazole multiple daily dosing, healthy subjects): safe and well tolerated
decrease of sotorasib AUC [4, 12]: 38%
decrease of sotorasib Cmax [4, 12]: 35%
decrease of sotorasib AUC ([4]; repeat doses of omeprazole): 57%
decrease of sotorasib Cmax ([4]; repeat doses of omeprazole): 65%
OATP1B1 substrate status ([5]; concluded from single dose rifampin): not a substrate of OATP1B1
effect of single dose of rifampin on sotorasib PK ([5]; single dose rifampin): did not have a clinically meaningful effect
phosphorylation of ERK [6]: inhibited nearly all detectable phosphorylation
Tmax ([7]; 240 mg): 4 h
Tmax ([7]; 960 mg): 4 h
Tmax ([8]; 240 mg, Day 1, Median): 1.0 h
AUC0-24h ([8]; 240 mg, Day 8): 36.3 µg·h/mL
AUC0-24h ([8]; 960 mg, Day 1): 85 µg·h/mL
mean exposures (Cmax and AUC0-24h) following 960 mg compared to 240 mg ([8]; Day 1 and Day 8): numerically higher
Exposures on Day 8 lower than on Day 1 ([8]; both 240 mg and 960 dosing): 30-40%
subjects with a dose reduction [9, 13]: 13.1%
subjects with dose reduction due to adverse events (AEs) [9, 13]: 10.8%
Number of subjects with any dose reduction [9, 14]: 0 (0.0) n (%)
Primary reason for dose reduction: Adverse event [9, 14]: 0 (0.0) n (%)
Number of subjects with any dose reduction [9, 15]: 3 (11.1) n (%)
Primary reason for dose reduction: Adverse event [9, 15]: 3 (11.1) n (%)
Number of subjects with any dose reduction [9, 16]: 3 (11.5) n (%)
Primary reason for dose reduction: Adverse event [9, 16]: 2 (7.7) n (%)
Number of subjects with any dose reduction [9, 17]: 2 (18.2) n (%)
Primary reason for dose reduction: Adverse event [9, 17]: 1 (9.1) n (%)
Number of subjects with any dose reduction [9, 18]: 36 (13.6) n (%)
Primary reason for dose reduction: Adverse event [9, 18]: 38 (11.2) n (%)
Number of subjects with any dose reduction [9, 19]: 2 (11.1) n (%)
Primary reason for dose reduction: Adverse event [9, 19]: 2 (11.1) n (%)
Number of subjects with any dose reduction [9, 20]: 56 (13.1) n (%)
Primary reason for dose reduction: Adverse event [9, 20]: 46 (10.8) n (%)
subjects who discontinued due to progression of disease [9, 21]: 44.6%
subjects who discontinued treatment with sotorasib [9, 21]: 69.6%
subjects whose reason to discontinue was due to AEs [9, 21]: 21.4%
Discontinuation reason: Adverse event ([9]; 180 mg QD fasted (N = 0)): 0 (0.0) n (%)
Discontinuation reason: Death ([9]; 180 mg QD fasted (N = 0)): 0 (0.0) n (%)
Discontinuation reason: Disease progression ([9]; 180 mg QD fasted (N = 0)): 0 (0.0) n (%)
Subjects who discontinued sotorasib ([9]; 180 mg QD fasted (N = 0)): 0 (−) n (%)
Discontinuation reason: Adverse event ([9]; 360 mg QD fasted (N = 3)): 0 (0.0) n (%)
Discontinuation reason: Death ([9]; 360 mg QD fasted (N = 3)): 0 (0.0) n (%)
Discontinuation reason: Disease progression ([9]; 360 mg QD fasted (N = 3)): 2 (66.7) n (%)
Subjects who discontinued sotorasib ([9]; 360 mg QD fasted (N = 3)): 2 (66.7) n (%)
Discontinuation reason: Adverse event ([9]; 480 mg BID fed (N = 3)): 2 (66.7) n (%)
Discontinuation reason: Death ([9]; 480 mg BID fed (N = 3)): 0 (0.0) n (%)
Discontinuation reason: Disease progression ([9]; 480 mg BID fed (N = 3)): 0 (0.0) n (%)
Subjects who discontinued sotorasib ([9]; 480 mg BID fed (N = 3)): 2 (66.7) n (%)
Discontinuation reason: Adverse event ([9]; 720 mg QD fasted (N = 2)): 0 (0.0) n (%)
Discontinuation reason: Death ([9]; 720 mg QD fasted (N = 2)): 0 (0.0) n (%)
Discontinuation reason: Disease progression ([9]; 720 mg QD fasted (N = 2)): 2 (100.0) n (%)
Subjects who discontinued sotorasib ([9]; 720 mg QD fasted (N = 2)): 2 (100.0) n (%)
Discontinuation reason: Adverse event ([9]; 960 mg QD fasted (N = 46)): 9 (19.6) n (%)
Discontinuation reason: Death ([9]; 960 mg QD fasted (N = 46)): 0 (0.0) n (%)
Discontinuation reason: Disease progression ([9]; 960 mg QD fasted (N = 46)): 21 (45.7) n (%)
Subjects who discontinued sotorasib ([9]; 960 mg QD fasted (N = 46)): 32 (69.6) n (%)
Discontinuation reason: Adverse event ([9]; 960 mg QD fed (N = 2)): 1 (50.0) n (%)
Discontinuation reason: Death ([9]; 960 mg QD fed (N = 2)): 0 (0.0) n (%)
Discontinuation reason: Disease progression ([9]; 960 mg QD fed (N = 2)): 0 (0.0) n (%)
Subjects who discontinued sotorasib ([9]; 960 mg QD fed (N = 2)): 1 (50.0 n (%)
Discontinuation reason: Adverse event [9, 22]: 12 (21.4) n (%)
Discontinuation reason: Death [9, 22]: 0 (0.0) n (%)
Discontinuation reason: Disease progression [9, 22]: 25 (44.6) n (%)
Subjects who discontinued sotorasib [9, 22]: 39 (69.6) n (%)
Geometric mean sotorasib AUOnf ([10]; 960 mg sotorasib with multiple doses of rifampin 600 mg): 12400 ng·h/mL
safety and tolerability ([10]; coadministered with 600 mg rifampin or alone, healthy subjects): safe and well tolerated
CYP3A4 substrate status ([10]; concluded from multiple doses of rifampin): is a CYP3A4 substrate
AUC(0-inf) ([10]; human, plasma, 960 mg): 25600 ng·h/mL
Cmax ([10]; human, plasma, 960 mg): 6350 ng/mL
decrease of sotorasib AUOnf ([10]; multiple doses of rifampin): 51%
decrease of sotorasib Cmax ([10]; multiple doses of rifampin): 35%
